The values below come from patent US6046228A, “Anti-viral pharmaceutical compositions containing saturated 1,2-dithiaheterocyclic compounds and uses thereof” (priority 1999, dated 2000).

In one experiment the test system is HIV-1RF. As to the kind of experiment: XTT cytoprotection (cytopathicity) anti-HIV assay, CEM-SS cells. It is filed as cell-based.
Another experiment addresses T1, HIV-1 p7NC protein (Human immunodeficiency virus type 1 group M subtype B, UniProt P04591).
T1 construct: recombinant HIV-1 p7NC protein
Kind of experiment: TSQ zinc release assay from p7NC. It is filed as biochemical. Conditions: 10 μM, 2 hours, FIG. 1(B), in words. The method, then:
Fluorescence measurements of the Trp^37 residue in the C-terminal zinc finger of the recombinant HIV-1 p7NC protein were performed as previously described (Rice et al., Science 270:1194, 1995). The p7NC protein was prepared at 20 μg/ml in 10 mM sodium phosphate buffer (pH 7.0), treated with 25 μM of each compound, then after indicated time intervals the samples were diluted 1/10 in 10 mM sodium phosphate buffer (pH 7.0) and the fluorescence intensity measured. The excitation and emission wavelengths utilized with the Shimadzu RF5000 spectrofluorimeter were 280 nm and 351 nm, respectively. In an alternate assay, the zinc-selective fluorescent probe N-(6-methoxy-8quinolyl-)-p-toluenesulfonamide (TSQ, Molecular Probes, Eugene, Oreg.) originally described by Fredrickson (J. Neurosci. Meth. 20:91, 1987) was utilized to measure zinc released from the p7NC protein in vitro. Briefly, 2 μM recombinant HIV-1 p7NC protein in 10 mM sodium phosphate buffer, pH 7.0, 10% glycerol was treated with 10 μM 624151 ([…] total volume in 96-well plates), and the time-dependent increase in fluorescence was measured on a Labsystems Fluoroskan II (360 nm excitation filter and 460 nm emission filter) over a period of 2 hours. […] Virus pellets were resolved by non-reducing SDS-PAGE and analyzed by immunoblot using monospecific rabbit antisera to the purified p7NC protein. […]

The subject of another experiment is SIV. Kind of experiment: XTT cytopathicity assay, other retroviruses. It is filed as cell-based. To be noted: Simian immunodeficiency virus. (In general: Formazan colour is commonly taken as a measure of viable cells.)
A further experiment deals with HIV-1IIIB. Kind of experiment: combination antiviral XTT assay, CEM-SS cells, method of Prichard and Shipman. It is filed as cell-based. Conditions: for synergy volume: 95% confidence level. How it is done:
Analysis of drug combinations was performed utilizing the XTT assay described above, with statistical evaluations performed according to the method of Prichard and Shipman (Antiviral Res. 14: 181-206, (1990)). Combination antiviral XTT assays were performed with CEM-SS cells utilizing HIV-1IIIB as previously described (Buckheit et al., Antimicrobial Agents and Chemotherapy 39: 2718-2727, (1995)). The standard anti-HIV assay was altered for combination analysis by increasing the multiplicity of infection 3-fold, allowing greater statistical consistency in these assays.
The synergy volumes for the combinatorial anti-HIV activities calculated at the 95% confidence level were 37, 80, 44, 55 and 16 μM^2, respectively, for each combination. Synergy volumes that range from […] represent additivity and volumes>50% represent synergistic responses. […] Thus, it is anticipated that the present dithiane dioxide compounds can be used in pharmaceutical compositions further including other antiviral agents.

As usually defined, the EC50 is the midpoint of the concentration-response curve.

Like-named read-outs stand apart in the source and are kept apart here.

Turning to `O=S1(=O)C[C@H](O)[C@H](O)CS1` (relative stereo) [NSC 624151, cis-1,1-dioxo[1,2]dithiane-4,5-diol], the EC50 in the experiment with HIV-1RF (Human immunodeficiency virus 1, CEM-SS, CEM-SS cells, HIV-1RF, read-out: XTT Assay EC50) came to 6.6 µM; in the experiment on HIV-1RF (Human immunodeficiency virus 1, CEM-SS, CEM-SS, RF, Table 2, read-out: EC50), 6.6 µM; in the experiment with HIV-1RF (Human immunodeficiency virus 1, CEM-SS, Table 5, read-out: EC50 Duplicates), 9.53 µM; with HIV-1RF (Human immunodeficiency virus 1, CEM-SS, Table 5, read-out: EC50 Mean) it was 12.2 µM; in the experiment with HIV-1RF (Human immunodeficiency virus 1, CEM-SS, XTT cytopathicity assay, Table 4, read-out: Infection EC50 (Mean ± S.D., n = 6)), 7.85 ± 5.5 µM; with HIV-1RF (Table 5, read-out: EC50 Duplicates), 14.9 µM. In the experiment on SIV, this compound displayed an EC50 of 22 µM. Also, the “EC50 relative to enantiomer or racemate” value in the experiment on HIV-1RF (in words) was “the average of these EC50 s is equivalent to the EC50 for the racemic mixture”. On HIV-1 p7NC protein, the “zinc ejection from p7NC measured with TSQ” value is given as “promote zinc ejection from the p7NC protein in vitro was confirmed”. Further, the “combination response with other antiviral agents” value in the experiment with HIV-1IIIB (AZT, ddC, 3TC, Costatolide or KNI-272, in words) is “additive to slightly synergistic response in combination with other antiviral agents, but was not antagonistic with any agents tested”. Also, the synergy volume in the experiment on HIV-1IIIB (in combination with 3TC) was determined as 44 μM^2; in the experiment with HIV-1IIIB (in combination with AZT), 37 μM^2; in the experiment on HIV-1IIIB (in combination with Costatolide), 55 μM^2; with HIV-1IIIB (in combination with KNI-272 protease inhibitor), 16 μM^2; in the experiment with HIV-1IIIB (in combination with ddC) it was 80 μM^2.
